Assays:
Format in all cases: cell-based
[1] = tested on: normal human fibroblasts; assay: hyaluronic acid production promoting effect and cell count; settings: 72 hr; for number of cells: negative control 5.4 × 10^5; for amount of hyaluronic acid produced: negative control = 100, n=3 average
Procedure: The number of cells of normal human fibroblasts was adjusted to 5.0×10^4 cells/mL in Medium 106S medium containing 2% FBS, and plated on a 24 well plate by 1.0 mL. The cell was cultured under an atmosphere of 95% (V/V) air-5% (V/V) carbon dioxide gas at 37° C. for 24 hr, and then Medium 106S medium (free of FBS) containing various concentrations of conagenin was added. After further culture for 72 hr, the culture supernatant was collected, and the concentration of hyaluronic acid released into the medium was measured by an inhibitory method (hyaluronic acid measurement kit, manufactured by SEIKAGAKU CORPORATION) utilizing a hyaluronic acid-binding protein. The method of operation was as indicated in the attached explanation insert. The results obtained using PBS as a negative control instead of conagenin was taken as 100 and the amount ratio of hyaluronic acid in the medium was calculated.

[2] = tested on: normal human skin fibroblasts; assay: type I collagen production promoting effect (PIP in culture supernatant) and cell count; settings: for produced amount of collagen: 24 hr, relative value, negative control = 100, n=3 average; for number of cells: cells per well, counted visually after trypsin, negative control 4.9 × 10^5
Procedure: Normal human skin fibroblasts (manufactured by KURABO INDUSTRIES LTD.) were added to a 24 well plate at 5×10^4 cells per well. Using Medium 106S medium (manufactured by KURABO INDUSTRIES LTD.) containing 2% FBS, the cells were cultured under an atmosphere of 95% (V/V) air-5% (V/V) carbon dioxide gas at 37° C. for 24 hr. The medium was changed to Medium 106S medium (free of FBS) containing each sample, and the cells were cultured under the same conditions for 24 hr. After the completion of culture, the culture supernatant was taken to evaluate the type I collagen biosynthesizability and, to count the cells, the cells were harvested by a trypsin treatment. The samples used were two kinds of conagenin contents of 0.1 μM, 1 μm, 10 μM, 100 μM, 1 mM (final concentration), and magnesium L-ascorbyl phosphate (manufactured by Wako Pure Chemical Industries, Ltd., final concentration 100 μM) as a positive control (one added with PBS instead of the sample was used as a negative control).

[3] = tested on: normal skin fibroblasts derived from human; assay: fibroblast activating action evaluation test by the MTT reduction method; settings: 48 hr culture, control = 100
Procedure: The present inventors performed a fibroblast activating action evaluation test by the MTT reduction method and using normal skin fibroblasts derived from human (see TIM Mosmann; Journal of Immunological Methods p 55-63, 1983).
Using DMEM (Gibco) containing 5% FBS (fetal bovine serum; purchased from NICHIREI CORPORATION), normal skin fibroblasts derived from human (manufactured by KURABO INDUSTRIES LTD.) were plated on a 96 well plate at a density of 2×10^4 cells/well, and cultured at 37° C., 5% CO2 for 24 hr. After removing the medium, the cells were washed with PBS(−) (NISSUI PHARMACEUTICAL CO., LTD.), the medium was changed to DMEM containing 1% FBS supplemented with each concentration of conagenin, and the cells were cultured at 37° C., 5% CO2. The blank was […] containing 1% FBS, which was free of test specimen. After culture for 48 hr, the absorbance at 550 nm was measured by MTT reduction method, based on which the MTT reduction amount was determined. The cell activation rate was shown in a percentage relative to the absorbance of additive-free cultured cell (control) as 100.

[4] = tested on: human skin fibroblasts; assay: type I collagen gel contractability after glucose modification (glycated collagen); settings: one week, negative control = 1
Procedure: A collagen solution (collagen was used trade name I-AC, manufactured by KOUKEN Co., Ltd.) was prepared on ice according to the explanation insert attached to the product, and the collagen was gelled in 12 wells at 37° C. A glucose-6-phosphate solution was added to the final concentration of 100 mM, and the mixture was incubated at 37° C. for 7 days to allow glycation reaction. Unreacted glucose-6-phosphate was removed, 1×10^5 cells/ml of fibroblast was sown on the collagen gel, and cultured for 5 hr using a 0.25% FBS/DMEM medium. The medium was removed, and […] or 0.25% FBS/DMEM medium containing PBS as negative control was added. The gel was detached from the dish wall, and the level of contraction of the gelled collagen was examined. As a positive control, DMEM medium containing 10% FBS was used. The medium was changed every 2 days and, one week later, the medium was removed by suction. The diameter of the collagen gel was measured, the area was calculated, and the area ratio was compared to that of the negative control as 1.

C[C@@H]([C@@H](C)O)[C@@H](O)C(=O)N[C@@](C)(CO)C(=O)O [conagenin, (2S)—N-[(2R,3S,4R)2,4-dihydroxy-3-methyl-pentanoyl]-2-methylserine] was tested, and the number of cells ([1]; 1 μM) was 5.3 × 10^5, the “amount of hyaluronic acid produced” value ([1]; 1 μM) was 108 and the number of cells ([1]; 10 μM) was 5.5 × 10^5. For the same compound, the “amount of hyaluronic acid produced” value ([1]; 10 μM) was 120, the number of cells ([1]; 100 μM) was 5.3 × 10^5 and the “amount of hyaluronic acid produced” value ([1]; 100 μM) was 132. For the same compound, the number of cells ([1]; 1 mM) was 5.1 × 10^5, the “amount of hyaluronic acid produced” value ([1]; 1 mM) was 147 and the number of cells ([1]; 5 mM) was 4.0 × 10^5. The “amount of hyaluronic acid produced” value ([1]; 5 mM) was 199, the “produced amount of collagen” value ([2]; 0.1 μM) was 196 and the number of cells ([2]; 0.1 μM) was 5.1 × 10^5. The “produced amount of collagen” value ([2]; 1 μM) was 197, the number of cells ([2]; 1 μM) was 5.1 × 10^5 and the “produced amount of collagen” value ([2]; 10 μM) was 204. The number of cells ([2]; 10 μM) was 5.2 × 10^5, the “produced amount of collagen” value ([2]; 100 μM) was 208 and the number of cells ([2]; 100 μM) was 4.8 × 10^5. For the same compound, the “produced amount of collagen” value ([2]; 1 mM) was 202, the number of cells ([2]; 1 mM) was 4.7 × 10^5 and the cell activation rate ([3]; 0.01 μM) was 105%. For the same compound, the cell activation rate ([3]; 0.05 μM) was 120%, the cell activation rate ([3]; 0.1 μM) was 125% and the cell activation rate ([3]; 1 μM) was 111%. It also gave a cell activation rate ([3]; 10 μM) of 113%, a cell activation rate ([3]; 40 μM) of 124% and a cell activation rate ([3]; 80 μM) of 113%. For the same compound, the cell activation rate ([3]; 160 μM) was 113%, the cell activation rate ([3]; 310 μM) was 113% and the “collagen gel area ratio” value ([4]; 1 μM) was 0.81. For the same compound, the “collagen gel area ratio” value ([4]; 100 μM) was 0.64 and the “collagen gel area ratio” value ([4]; 5 mM) was 0.49.
